System: E. coli K-12
Assay: Minimal Inhibitory Concentration (MIC) growth test of EuCl3
Type: cell-based
Source text: The inventors were first interested in evaluating Eu toxicity in their working conditions. To this purpose, they have submitted E. coli to a serial of growing tests called Minimal Inhibitory Concentration (MIC). This test aimed to determine the lowest concentration able to inhibit the bacteria growth. It consisted in growing bacteria in presence of several concentrations of the tested compound.
Serial dilution series of the substance to be tested were inoculated with bacteria at 0.3 D.O550 nm diluted 1/16000 in culture medium. D.O550 nm was followed until stationary phase. Minimal concentration of the test substance preventing stationary phase was considered as MIC.
For the Eu MIC determination, the inventors have tested EuCl3 concentrations between 100 μM and 2 mM. E. coli K-12 and pBAD arabinose inducible MTtag transformed E. coli K-12 were tested. E. coli K12 were transformed by electroporation with the pBAD plasmid down control of BAD promoter (Guzman, L. M., et al. J Bacteriol 177, 4121-4130 (1995); Khlebnikov, A. & Keasling, J. D. Biotechnol. Prog. 18, 672-674 (2002)). Bacteria pre-cultures were produced at 37° C. in Luria-Bertani (LB) medium with added ampicillin ([…]) in transformed strain. The pre-cultures were used to inoculate tubes of minimum media M9 (with or without ampicillin) until exponential phase D.O550 nm≈0.3. Then, 1/16000 dilutions were prepared in M9 medium (with or without ampicillin). 1 μl of the diluted bacteria were added to 200 μl of M9-EuCl3 at different concentrations in 96 wells plates. Bacterial grow was followed until stationary phase. The D.O550 nm was measured on a Tecan Infinite 200 PRO.

SMILES: [Cl][Eu]([Cl])[Cl] [EuCl3]
- Effect on bacterial growth (E. coli K-12 MG1655 growth curve, several concentrations of Europium (FIG. 1)): doesn't have a dramatic negative effect on bacterial growth
- MIC: EuCl3 concentration until which bacteria is viable (E. coli K-12 and MTtag transformed E. coli K-12, M9 medium, 100 μM to 2 mM tested, repeated 10 times): higher than 2 mM
- Precipitation above maximal concentration tested (M9 medium, maximal concentration tested 2 mM): precipitates at higher concentrations
- EuCl3 concentration after which growing slow down is observed (does not impact bacterial viability): > 1 mM
- Toxicity for E. coli K-12 (transformed or not): not toxic

— patent US20140322744A1, “CLONABLE TAG FOR CORRELATIVE LIGHT AND ELECTRON MICROSCOPY LABELING” (INSTITUT CURIE, priority 2011, published 2014)
